The data set in a line: Solubility of Pyrasulfotole in solvents with and without organic amine at room temp (24° C.). The data set is classed as physicochemical. The following applies: for increase of solubility: 24° C. Here is the method:
Some of the results are tabulated as follows:
Solubility of Pyrasulfotole in Dimethyl sulfoxide (DMSO) and in a mixture of Pyrasulfotole with DMSO and amine at room temp (24° C.) was tested.
Solubility of Pyrasulfotole in Cyclohexanone and in a mixture of Pyrasulfotole with Cyclohexanone and amine at room temp (24° C.) was tested.
Solubility of Pyrasulfotole in Propylene carbonate and in a mixture of Pyrasulfotole with Propylene carbonate and amine at room temp (24° C.) was tested.

For the molecule `Cc1nn(C)c(O)c1C(=O)c1ccc(C(F)(F)F)cc1S(C)(=O)=O` [Pyrasulfotole], the increase of solubility entry is recorded as “about 400%” (Cyclohexanone/Genamin C-50 66/34 versus Cyclohexanone alone), “about 26%” (DMSO/GENAMIN C-50 66/34 versus DMSO alone) and “about 620%” (Propylene carbonate/Genamin C-50 70/30 versus Propylene carbonate alone). For the same molecule, the “Solubility (%)” value by setting is: (solvent Cyclohexanone, rate 100, room temp (24° C.)) 8.24%; (solvent Cyclohexanone/Genamin C-50, rate 66/34, room temp (24° C.)) 32.99%; (solvent DMSO, rate 100, room temp (24° C.)) 26.98%; (solvent DMSO/GENAMIN C-50, rate 66/34, room temp (24° C.)) 39.24%; (solvent Propylene carbonate, rate 100, room temp (24° C.)) 4.59%; (solvent Propylene carbonate/Genamin C-50, rate 70/30, room temp (24° C.)) 28.57%.
